{"source": "paper PMC6175574", "about": "“Kinetic mechanism of coupled binding in sodium-aspartate symporter GltPh” (eLife, 2018)", "key": {"[1]": {"target": "P11W^IFS (Hg^2+-crosslinked P11W/K55C/A364C GltPh, inward-facing state) (Pyrococcus horikoshii, UniProt O59010, A364C/C321A/D37H/E368H/K125H/K132H/K223H/K264H/K40H/K55C/P11W)", "sequence (O59010 whole entry P11W/D37H/K40H/K55C/K125H/K132H/K223H/K264H/C321A/A364C/E368H)": "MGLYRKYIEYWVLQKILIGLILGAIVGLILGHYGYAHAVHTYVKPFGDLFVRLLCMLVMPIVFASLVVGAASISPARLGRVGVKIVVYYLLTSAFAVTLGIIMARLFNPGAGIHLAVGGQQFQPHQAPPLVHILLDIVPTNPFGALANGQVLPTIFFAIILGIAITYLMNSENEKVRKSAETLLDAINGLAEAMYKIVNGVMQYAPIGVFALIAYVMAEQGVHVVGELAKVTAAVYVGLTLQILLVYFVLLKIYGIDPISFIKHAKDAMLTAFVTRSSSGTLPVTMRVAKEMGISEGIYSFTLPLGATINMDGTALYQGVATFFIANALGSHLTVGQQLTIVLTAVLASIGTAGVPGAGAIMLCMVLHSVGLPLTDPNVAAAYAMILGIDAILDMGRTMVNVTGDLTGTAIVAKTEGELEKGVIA", "assay_type": "binding", "conditions": "for slope of kr values versus Na^+ concentration: linear fit constrained through the origin, kr from plateaus of ligand binding rates", "protocol": "(§1) For emission scans, protein samples at 1 µM were prepared in 2 mL of 20 mM Hepes/Tris pH 7.4, 300 mM choline chloride and 1 mM DDM. […] Baseline was determined using buffer only and subtracted from the data. […] For real-time fluorescence measurements of ligand binding, protein samples at 1 µM were incubated in 2 mL fluorometer cell containing 20 mM Hepes/Tris pH 7.4, 300 mM choline chloride and 1 mM DDM with various NaCl concentrations at 25°C. Data were normalized by dividing fractional fluorescence change by the maximal change observed upon addition of saturating ligand concentrations at the end of each experiment. After signal equilibration, ligands were added with fast stirring. Excitation and emission wavelengths were 295 and 350 nm, respectively. Here and elsewhere, data were analyzed using SigmaPlot 12.0 (Systat Software, Inc) and GraphPad Prism 7 (GraphPad Software). All kinetic relaxation curves were fitted to single exponentials.\nThe full Equation 4 requires fitting of four rate constants, kr, k-r, kon and koff ([Vogt et al., 2012]). […] The data for DL-TBOA binding were fitted to Equation 3."}, "P11W^IFS [2]": {"target": "T1, P11W^IFS (Pyrococcus horikoshii, UniProt O59010, A364C/C321A/D37H/E368H/K125H/K132H/K223H/K264H/K40H/K55C/P11W)", "T1 sequence (O59010 whole entry P11W/D37H/K40H/K55C/K125H/K132H/K223H/K264H/C321A/A364C/E368H)": "as above", "assay_type": "binding", "conditions": "for koff: fitted; for kon: reaction 1, T + Na = TNa", "excerpt": "The kinetic models in Figure 4, Figure 4—figure supplement 4 and Figure 5—figure supplement 1 were implemented in KinTek program (KinTek, Inc) ([Johnson, 2009]) for global parameter fitting and in Copasi ([Hoops et al., 2006]) for simulations. […] Raw relaxation curves, including 21 dissociation and 58 binding reactions were fitted globally in KinTek (Figure 4—figure supplements 2 and 3).\n(§2) 68 individual relaxation curves were fitted globally, allowing only the rates of DL-TBOA dissociation to be adjusted (Figure 4—figure supplement 5)."}, "wild type GltPh [3]": {"target": "T2, wild type GltPh (Pyrococcus horikoshii, UniProt O59010)", "T2 sequence (O59010 whole entry)": "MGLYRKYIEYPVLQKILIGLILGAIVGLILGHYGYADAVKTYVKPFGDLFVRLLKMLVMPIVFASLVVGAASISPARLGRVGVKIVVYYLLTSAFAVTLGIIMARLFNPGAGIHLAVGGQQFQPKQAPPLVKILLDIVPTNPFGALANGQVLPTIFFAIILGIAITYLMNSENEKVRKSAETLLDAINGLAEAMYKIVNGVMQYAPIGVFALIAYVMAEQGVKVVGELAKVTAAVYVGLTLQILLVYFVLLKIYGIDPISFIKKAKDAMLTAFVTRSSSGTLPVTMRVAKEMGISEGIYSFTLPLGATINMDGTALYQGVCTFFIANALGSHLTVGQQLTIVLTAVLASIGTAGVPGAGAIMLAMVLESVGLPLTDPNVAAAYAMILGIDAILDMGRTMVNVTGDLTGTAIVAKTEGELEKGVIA", "conditions": "100 mM NaCl; ref Ryan et al., 2009; cited from earlier work"}, "wild type GltPh [4]": {"target": "T2, wild type GltPh", "test": "L-asp transport (uptake and exchange) in proteoliposomes", "assay_type": "biochemical", "parameters": "made in house; host or cells: Escherichia coli (DH10b is stated for the mutants)", "conditions": "35°C, 200 mM NaCl external", "protocol": "GltPh protein samples were reconstituted into liposomes as previously described ([Boudker et al., 2007]; [Ryan et al., 2009]). In brief, 0.1% L-α-Phosphatidylethanolamine-N-lissamine rhodamine B sulfonyl (Avanti Polar Lipids) was added to with 3:1 (w/w) mixture of E.coli polar lipid extract and egg phosphatidylcholine and dried on rotary evaporator and under vacuum overnight. The mixture was hydrated using 20 mM Hepes/Tris, pH 7.4 and 200 mM KCl buffer at final lipid concentration of 5 mg/ml by 10 freeze/thaw cycles. The suspensions were extruded through 400 nm filter membranes (Whatman) 10 times to form unilamellar liposomes. The rhodamine fluorescence of the liposomes was measured to generate a concentration calibration curve; excitation and emission wavelengths were 560 and 583 nm, respectively. […] Final concentrations of proteoliposomes were determined by rhodamine fluorescence.\nFor substrate exchange experiments, the internal proteoliposome buffer was replaced with buffer containing 20 mM Hepes/Tris, pH 7.4 and 200 mM NaCl and 100 µM L-asp. […] The washed filter membranes were transferred into scintillation vials, and retained radioactivity was measured using LS6500 scintillation counter (Beckman Coulter). Background uptake was measured in the reaction buffer containing 20 mM Hepes/Tris pH 7.4, 200 mM KCl, 500 nM ^3H-L-asp and 100 nM cold L-asp."}, "P11W^IFS [5]": {"target": "T1, P11W^IFS", "test": "Fluorescence-based titration using RH421", "assay_type": "binding", "protocol": "After addition of appropriate NaCl concentrations and 200 nM RH421 (Sigma-Aldrich), the samples were incubated at 25°C until fluorescence signal plateaued. […] Excitation and emission wavelengths were 532 and 628 nm, respectively."}, "[6]": {"target": "T3, FM-P11W^IFS (R276S/M395R within P11W^IFS background) (Pyrococcus horikoshii, UniProt O59010, A364C/C321A/D37H/E368H/K125H/K132H/K223H/K264H/K40H/K55C/M395R/P11W/R276S)", "T3 construct": "made in house; host or cells: Escherichia coli DH10b", "T3 sequence (O59010 1-417 P11W/D37H/K40H/K55C/K125H/K132H/K223H/K264H/R276S/C321A/A364C/E368H/M395R)": "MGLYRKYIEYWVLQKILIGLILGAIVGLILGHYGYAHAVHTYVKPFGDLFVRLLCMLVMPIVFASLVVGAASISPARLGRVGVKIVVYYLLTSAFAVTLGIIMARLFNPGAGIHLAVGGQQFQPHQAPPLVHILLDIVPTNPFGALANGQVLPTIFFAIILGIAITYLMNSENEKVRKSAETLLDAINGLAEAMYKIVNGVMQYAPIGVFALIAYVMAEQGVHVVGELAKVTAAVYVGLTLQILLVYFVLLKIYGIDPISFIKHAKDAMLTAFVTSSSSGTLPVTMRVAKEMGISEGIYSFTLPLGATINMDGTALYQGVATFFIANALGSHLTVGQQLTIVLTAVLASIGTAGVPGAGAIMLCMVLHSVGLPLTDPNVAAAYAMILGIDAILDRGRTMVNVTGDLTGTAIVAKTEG", "assay_type": "binding", "protocol": "as §1, §2"}, "GltPh Na3 site": {"tested_on": "GltPh Na3 site", "parameters": "method as in Heinzelmann et al., 2011; Heinzelmann et al., 2013", "conditions": "estimated in computational studies, ref Heinzelmann et al., 2011, 2013; cited from earlier work"}}, "note": "Values joined by “and” are separate entries in the source; they are usually repeats but may differ in a detail not shown here. Equal entries are not always repeated. Where two headings read alike, the source gives them in different places."}
{"smiles": "N[C@H](C(=O)O)[C@H](OCc1ccccc1)C(=O)O", "note": "(racemic) [DL-TBOA, DL-threo-β-benzyloxyaspartic acid, reference compound]", "values": [{"measurement": "kobs of DL-TBOA binding", "setting": "[1]; 8 mM DL-TBOA, 4 mM Na^+, representative experiment, single exponential fit", "result": 0.2106, "unit": "s⁻¹"}, {"measurement": "slope of kr values versus Na^+ concentration", "setting": "[1]", "result": "26 ± 1.7", "unit": "M⁻¹ s⁻¹"}, {"measurement": "increase in the rate of unbinding relative to L-asp in kinetic model", "setting": "P11W^IFS [2]", "result": "about 20 fold"}, {"measurement": "koff", "setting": "P11W^IFS [2]; reaction 3, TNa + A = TANa, P11W^IFS/DL-TBOA model", "result": "11.5 ± 5", "unit": "s⁻¹"}, {"measurement": "koff", "setting": "P11W^IFS [2]; reaction 4, TNa2 + A = TANa2, P11W^IFS/DL-TBOA model", "result": "1.72 ± 0.09", "unit": "s⁻¹"}]}
{"smiles": "N[C@@H](CC(=O)O)C(=O)O", "note": "[L-asp, aspartate]", "values": [{"measurement": "kobs of L-asp binding", "setting": "[1]; 0.5 mM L-asp, 4 mM Na^+, representative experiment, single exponential fit", "result": 0.0712, "unit": "s⁻¹"}, {"measurement": "slope of kr values versus Na^+ concentration", "setting": "[1]", "result": "36 ± 0.9 M⁻¹ s⁻¹ and 36 M⁻¹ s⁻¹"}, {"measurement": "Km", "setting": "wild type GltPh [3]", "result": "~0.1", "unit": "µM"}, {"measurement": "rate of concentrative Na^+-driven uptake of radiolabeled L-asp compared with rate of L-asp exchange", "setting": "wild type GltPh [4]", "result": "significantly higher"}, {"measurement": "slope of log-log plot of L-asp dissociation constants as a function of Na^+ concentration", "setting": "P11W^IFS [5]", "result": 2.5}]}
{"smiles": "[Na+]", "note": "[Na^+, sodium]", "values": [{"measurement": "increase of the rate of binding of the first Na^+ ion relative to P11W^IFS", "setting": "[6]; kinetic model adjustment", "result": 4, "unit": "fold"}, {"measurement": "kon", "setting": "[6]; reaction 1, T + Na = TNa, FM-P11W^IFS/L-asp model", "result": 144, "unit": "M⁻¹ s⁻¹"}, {"measurement": "koff", "setting": "[6]; reaction 1, T + Na = TNa, FM-P11W^IFS/L-asp model, optimized in global fitting (#)", "result": "39 ± 3", "unit": "s⁻¹"}, {"measurement": "intrinsic affinity of Na3 site", "setting": "GltPh Na3 site", "result": -16, "unit": "kcal/mol"}, {"measurement": "Kd", "setting": "[1]; Hill coefficient n fixed to 1, L-asp dissociation experiments, read-out: KD,Na of rapidly equilibrating Na^+ ions (fit to Equation 2)", "result": "40 ± 20", "unit": "µM"}, {"measurement": "Kd", "setting": "[1]; Hill coefficient n fixed to 2, L-asp dissociation experiments, read-out: KD,Na of rapidly equilibrating Na^+ ions (fit to Equation 2)", "result": "130 ± 20", "unit": "µM"}, {"measurement": "Kd", "setting": "[1]; Hill coefficient n fixed to 3, L-asp dissociation experiments, read-out: KD,Na of rapidly equilibrating Na^+ ions (fit to Equation 2)", "result": "150 ± 13", "unit": "µM"}, {"measurement": "Kd", "setting": "[1]; read-out: affinity of the two 'locking' Na^+ ions", "result": "~100", "unit": "µM"}, {"measurement": "Na^+ concentration at which fluxes through 'second Na^+ binds first' and 'L-asp binds first' branches are equal", "setting": "P11W^IFS [2]; kinetic model, forward and reverse directions", "result": "~ 3.6 mM and 3.6 mM"}, {"measurement": "kon", "setting": "P11W^IFS [2]; P11W^IFS/DL-TBOA model, fixed (*)", "result": 36, "unit": "M⁻¹ s⁻¹"}, {"measurement": "kon", "setting": "P11W^IFS [2]; P11W^IFS/L-asp model, fixed during fitting (*)", "result": 36, "unit": "M⁻¹ s⁻¹"}, {"measurement": "remaining binding rates for Na^+ ions", "setting": "P11W^IFS [2]; set at an arbitrary high value", "result": "10^7 M^−1 s^−1"}, {"measurement": "affinity of binding of the first Na^+ ion", "setting": "P11W^IFS [2]; suggested by experimental data", "result": "no more than −0.5 kcal/mol"}]}
